Data on 3 molecules can be found in patent US4650868A, “7-deazapurine derivatives useful as antitumor agents” (Takeda Chemical Industries, Ltd., priority 1984, dated 1987).

In brackets after ≈: the same amount, converted by molar mass.

The test system of assay [1] is rat liver tRNA-guanine transglycosylase. Kind of assay: Uptake of the compound into [3H]guanine-labeled tRNA. The assay is classed as biochemical. The settings on record: 0.02 OD260 of compound, 37° C., 17 hours, [3H]guanine labeled tRNA (8000 cpm). As to the method: [^3 H] guanine labeled tRNA*) (8000 cpm), 70 mM of […], 60 mM of magnesium chloride, 0.5 unit of rat liver tRNA-guanine transglycosylase and 0.02 OD260 of the compound obtained in Example 1 to be described hereinafter were prepared to the total volume of 100 μl, and the reaction was allowed to proceed at 37° C. for 17 hours. The reaction solution was applied to a Whatman 3 MM filter paper (produced by Whatman Co., U.S.A.), which was washed three times with a 5% aqueous solution of trichloroacetic acid and once successively with ethanol/ether (1:1) and ether alone.
(*) tRNA with the first letter of its anticodon labeled with [^3 H]-guanine.

In assay [2] the test system is Meth A tumor cells. Kind of assay: Meth A tumor subcutaneously transplanted into BALB/c mouse. The assay is classed as in vivo. The settings on record: 100 mg/kg intraperitoneally once a day for 14 consecutive days from day 4; tumor weight on 35th day after transplantation. How it is done: 5×10^4 Meth A tumor cells were subcutaneously transplanted into a BALB/c mouse weighing 20 g, and starting with the fourth day after transplantation, a solution of the compound as obtained in Example 3 to be described hereinafter in 0.1 ml of distilled water prepared in such a way that a dose might be 100 mg/kg was intraperitoneally injected into the mouse once a day for 14 consecutive days. On the 35th day after transplantation, the tumor node was enucleated and its weight (T) was measured.

For assay [3], the system named is L5178Y mouse tumor cells. Kind of assay: Growth inhibition of cultured L5178Y cells. It is filed as cell-based. The settings on record: 72 hours incubation with drug, cell count, non-treated control = 100%, read-out: IC50 (50% growth inhibitory concentration). How it is done:
1×10^4 L5178Y mouse tumor cells were suspended in 2 ml of a RPMI-1640 medium (produced by Nissui Pharmaceutical Co. of Japan) containing 10% of bovine fetal serum, 20 μM of 2-mercaptoethanol and 100 μg/ml of Kanamycin, and incubated at 37° C. for 24 hours before addition of the drug. Using the above culture fluid as a diluent, the compound as obtained in Example 3 to be described hereinafter was diluted 1/4-fold in a series of 5 stages and added to the culture medium in such a manner that the maximum concentration of the compound might be 200 μg/ml. The dilutions were further incubated for 72 hours, at the end of which time the cells were counted with use of a counter and the IC50 (50% growth inhibitory concentration) was calculated with the count for the non-treated control group being taken as 100%. The IC50 value was 2.0 μg/ml.

Turning to `COc1ccccc1NCc1c[nH]c2nc(N)[nH]c(=O)c12` [Example 1, 2-amino-5-(2-methoxyphenylaminomethyl)pyrrolo[2,3-d]pyrimidin-4-one], in assay [1], the “uptake of the test compound into tRNA” value came to 120%. With `COc1cc(NCc2c[nH]c3nc(N)[nH]c(=O)c23)cc(OC)c1OC` [Example 2 (2), 2-Amino-5-(3,4,5-trimethoxyphenylaminomethyl)pyrrolo[2,3-d]pyrimidin 4-one], in assay [1], the “uptake of the test compound into tRNA” value came to 140%.

Consider `Nc1ccc(NCc2c[nH]c3nc(N)[nH]c(=O)c23)cc1` [Example 3, 2-amino-5-(4-aminophenylaminomethyl)pyrrolo[2,3-d]pyrimidin-4-one], for which the “tumor inhibition rate (T/C)” value in assay [2] is 36%. In addition, the IC50 in assay [3] worked out at 2 µg/mL (≈ 7.4 µM).
